Data published in patent US8779141B2, “Viral inhibitors” (Gilead Sciences, Inc., priority 2002, dated 2014).
Converted amounts (≈) assume the structure as drawn. Read-outs that look alike come from different tables or passages of the source.

Experiments:
BVDV-1 (strain PE515) = assay: Anti-BVDV assay, virus-induced cytopathic effect in MDBK cells (MTS); assay type: cell-based, Bovine Viral Diarrhea Virus
Experimental: (§1) Madin-Darbey Bovine Kidney (MDBK) cells were maintained in Dulbecco's modified Eagle medium (DMEM) supplemented with BVDV-free 5% fetal calf serum (DMEME-FCS) at 37° C. in a humidified, 5% CO2 atmosphere. BVDV-1 (strain PE515) was used to assess the antiviral activity in MDBK cells. Vero cells were maintained in the same way as MDBK cells. Vero cells were infected with Coxsackie B3 virus (strain Nancy).
Ninety-six-well cell culture plates were seeded with MDBK cells in DMEM-FCS so that cells reached 24 hr later confluency. Then medium was removed and serial 5-fold dilutions of the test compounds were added in a total volume of 100 ul, after which the virus inoculum (100 ul) was added to each well. […] Uninfected cells and cells receiving virus without compound were included in each assay plate. After 5 days, medium was removed and 90 μl of DMEM-FCS and 10 ul of MTS/PMS solution (Promega) was added to each well. Following a 2 hr incubation period at 37° C. the optical density of the wells was read at 498 nm in a microplate reader.

[1] = Cytostatic effect on exponentially growing MDBK cells (MTS); assay type: cell-based, Bovine; details: bovine; Table 9; reduction of growth of exponentially growing MDBK cells by 50%; mean of 2-5 determinations
Experimental: (§2) Madin-Darbey Bovine Kidney (MDBK) cells were maintained in Dulbecco's modified Eagle medium (DMEM) supplemented with BVDV-free 5% fetal calf serum ([…]) at 37° C. in a humidified, 5% CO2 atmosphere. […] Vero cells were maintained in the same way as MDBK cells. […] The effect of the drugs on exponentially growing MDBK cells was assessed as follows. Cells were seeded at a density of 5000 cell/well in 96 well plates in MEM medium (Gibco) supplemented with 10% fetal calf serum, 2 mM L-glutamine (Life Technologies) and bicarbonate (Life Technologies). […] Cultures were then again further incubated for 3 days after which the effect on cell growth was quantified by means of the MTS method (Promega).

[2] = tested on: Coxsackie B3 virus (strain Nancy); assay: Anti-coxsackie virus assay, cytopathic effect in Vero cells (MTS); assay type: cell-based; details: Enterovirus B, Table 13, reduction of virus (CBV-3 Nancy strain)-induced cytopathic effect in Vero cells by 50%
Experimental: as §1
(§3) Ninety-six-well cell culture plates were seeded with Vero cells in DMEM medium containing 10 fetal calf serum (FCS) so that cells reached confluency 24-48 hr later. Medium was then removed and serial 5-fold dilutions of the test compounds were added in a total volume of 100 ul, after which the virus inoculum (100 μl) was added to each well. […] Uninfected cells and cells receiving virus without compound were included in each asay plate. After 5 days, the medium was removed and 90 μl of DMEM-FCS and 10 μl of MTS/PMS solution (Promega) was added to each well. Following a 2 hr incubation period at 37° C., the optical density of the wells was read at 498 nm in a microplate reader. The 50% effective concentration (EC50) value was defined as the concentration of compound that protects 50% of the cell monolayer from virus-induced cytopathic effect.

Vero cells = assay: Metabolism of confluent Vero cells (MTS); assay type: cell-based; details: Table 13; reduction of metabolism of confluent Vero cells by 50%, MTS method
Experimental: as §1, §3

[3] = tested on: HCV replicon in Huh-5-2 cells; assay: Anti-HCV replicon assay, luciferase activity in Huh-5-2 cells; assay type: cell-based; details: Hepatitis C virus, Table 11, inhibition of luciferase activity in the replicon system by 50%
Experimental: (§4) Cells were seeded at a density of 7000 cells per well in 96 well View Plate™ (Packard) in medium containing the same components as described above, except for G418. Cells were allowed to adhere and proliferate for 24 hr. At that time, culture medium was removed and serial dilutions of the test compounds were added in culture medium lacking G418. Interferon alfa 2a (500 IU) was included as a positive control. Plates were further incubated at 37° C. and 5% CO2 for 72 hours. Replication of the HCV replicon in Huh-5 cells results in luciferase activity in the cells. Luciferase activity is measured by adding 50 μl of 1× Glo-lysis buffer (Promega) for 15 minutes followed by 50 ul of the Steady-Glo Luciferase assay reagent (Promega). Luciferase activity is measured with a luminometer and the signal in each individual well is expressed as a percentage of the untreated cultures. […] Instead the density of the culture is measured by means of the MTS method (Promega).

[4] = Proliferation of exponentially growing Huh-5-2 cells (MTS); assay type: cell-based; details: human, exponentially growing Huh-5-2 cells (HCV replicon cell line); Table 11; inhibition of proliferation of exponentially growing Huh-5-2 cells by 50%
Experimental: as §4

MDBK cells = assay: Cytostatic effect on exponentially growing MDBK cells (MTS); assay type: cell-based, Bovine; details: for MTC: Table 10, mean toxic concentration, reduces growth of exponentially growing MDBK cells by 50%
Experimental: as §2

[5] = Bovine viral diarrhea virus isolates and strains, Table 9, reduction of virus induced cytopathic effect in MDBK cells by 50%, BVDV strain PE515, mean of 2-5 determinations, read-out: EC50
[6] = Bovine viral diarrhea virus isolates and strains, Table 10, reduction of virus induced cytopathic effect in MDBK cells by 50%, read-out: EC50

Structure (SMILES): Fc1cccc(F)c1-c1nc2ccn(Cc3ccc(Cl)c(Cl)c3)cc-2n1 [GPC-10, 5-[(3,4-Dichlorophenyl)methyl]-2-(2,6-difluorophenyl)-5H-imidazo[4,5-c]pyridine]
- EC50 (BVDV-1 (strain PE515); [5]): 0.064 µg/mL (≈ 0.164 µM)
- CC50 at 3 days [1]: 4 µg/mL (≈ 10.3 µM)
- EC50 [2]: 1.81 µg/mL (≈ 4.64 µM)
- TC50 (Vero cells): 59 µg/mL (≈ 151 µM)

Structure (SMILES): Fc1cccc(-c2nc3ccn(Cc4ccc(F)cc4F)cc-3n2)c1 [GPC-11, 5-[(2,4-Difluorophenyl)methyl]-2-(3-fluorophenyl)-5H-imidazo[4,5-c]pyridine]
- EC50 (BVDV-1 (strain PE515); [5]): 0.56 µg/mL (≈ 1.65 µM)
- CC50 at 3 days [1]: > 100 µg/mL
- EC50 [2]: 4.76 µg/mL (≈ 14 µM)
- TC50 (Vero cells): >100 µg/mL

Structure (SMILES): Fc1ccc(Cn2ccc3nc(-c4c(F)ccc(F)c4F)nc-3c2)c(F)c1 [GPC-12, 5-[(2,4-Difluorophenyl)methyl]-2-(2,3,6-trifluorophenyl)-5H-imidazo[4,5-c]pyridine]
- EC50 [2]: 3.6 µg/mL (≈ 9.59 µM)
- TC50 (Vero cells): >100 µg/mL

Structure (SMILES): CC(C)(C)c1ccc(Cn2ccc3nc(-c4ccccc4)nc-3c2)cc1 [GPJN-16, 5-[[4-(1,1-Dimethylethyl)phenyl]methyl]-2-phenyl-5H-imidazo[4,5-c]pyridine]
- EC50 (BVDV-1 (strain PE515); [5]): 0.246 µg/mL (≈ 0.72 µM)
- CC50 at 3 days [1]: 8.1 µg/mL (≈ 23.7 µM)
- EC50 [3]: 1 µg/mL (≈ 2.93 µM)
- CC50 at 72 hours [4]: 3 µg/mL (≈ 8.79 µM)

Structure (SMILES): c1ccc(-c2ccc(Cn3ccc4nc(-c5ccccc5)nc-4c3)cc2)cc1 [GPJN-32, 5-([1,1′-Biphenyl]-4-ylmethyl)-2-phenyl-5H-imidazo[4,5-c]pyridine]
- EC50 (BVDV-1 (strain PE515); [5]): 0.027 µg/mL (≈ 0.0747 µM)
- CC50 at 3 days [1]: 20 µg/mL (≈ 55.3 µM)
- EC50 [2]: 6.5 µg/mL (≈ 18 µM)
- TC50 (Vero cells): 69 µg/mL (≈ 191 µM)

Structure (SMILES): c1ccc(-c2nc3ccn(Cc4cccc5ccccc45)cc-3n2)cc1 [GPJN-36, 5-(1-Naphthalenylmethyl)-2-phenyl-5H-imidazo[4,5-c]pyridine]
- EC50 (BVDV-1 (strain PE515); Table 9, reduction of virus induced cytopathic effect in MDBK cells by 50%, BVDV strain PE515, mean of 2-5 determinations): 0.019 µg/mL (≈ 0.0566 µM)
- CC50 (MDBK cells; Table 9, reduction of growth of exponentially growing MDBK cells by 50%, mean of 2-5 determinations): 24 µg/mL (≈ 71.6 µM)

Structure (SMILES): Fc1ccc(Cn2ccc3nc(-c4c(F)cccc4F)nc-3c2)c(F)c1 [GPJN-40, 2-(2,6-Difluorophenyl)-5-[(2,4-difluorophenyl)methyl]-5H-imidazo[4,5-c]pyridine]
- EC50 (BVDV-1 (strain PE515); [5]): 0.25 µg/mL (≈ 0.7 µM)
- CC50 at 3 days [1]: > 100 µg/mL
- EC50 [2]: 8.95 µg/mL (≈ 25 µM)
- TC50 (Vero cells): >100 µg/mL

Structure (SMILES): Fc1cccc(-c2nc3ccn(Cc4ccc(Br)cc4)cc-3n2)c1 [GPJN-50, 5-[(4-Bromophenyl)methyl]-2-(3-fluorophenyl)-5H-imidazo[4,5-c]pyridine]
- EC50 (BVDV-1 (strain PE515); [5]): 0.021 µg/mL (≈ 0.0549 µM)
- CC50 at 3 days [1]: > 100 µg/mL
- EC50 [2]: 8.47 µg/mL (≈ 22.2 µM)
- TC50 (Vero cells): >100 µg/mL

Structure (SMILES): Cc1cccc(-c2nc3ccn(Cc4ccc(Br)cc4)cc-3n2)c1 [GPJN-60, 5-[(4-Bromophenyl)methyl]-2-(3-methylphenyl)-5H-imidazo[4,5-c]pyridine]
- EC50 (BVDV-1 (strain PE515); Bovine viral diarrhea virus isolates and strains, MDBK): 0.015 µg/mL (≈ 0.0397 µM)
- CC50 at 3 days [1]: > 77 µg/mL
- EC50 [2]: 6.1 µg/mL (≈ 16.1 µM)
- TC50 (Vero cells): >100 µg/mL

Structure (SMILES): Brc1ccc(Cn2ccc3nc(-c4cccc5ccccc45)nc-3c2)cc1 [GPJN-62, 5-[(4-Bromophenyl)methyl]-2-(1-naphthalenyl)-5H-imidazo[4,5-c]pyridine]
- EC50 (BVDV-1 (strain PE515); [5]): 0.12 µg/mL (≈ 0.29 µM)
- CC50 at 3 days [1]: 9.4 µg/mL (≈ 22.7 µM)
- EC50 [3]: < 0.62 µg/mL
- CC50 at 72 hours [4]: 6 µg/mL (≈ 14.5 µM)

Structure (SMILES): COc1cccc(-c2nc3ccn(Cc4ccc(Br)cc4)cc-3n2)c1 [GPJN-64, 5-[(4-Bromophenyl)methyl]-2-(3-methoxyphenyl)-5H-imidazo[4,5-c]pyridine]
- EC50 (BVDV-1 (strain PE515); [5]): 0.026 µg/mL (≈ 0.0659 µM)
- CC50 at 3 days [1]: > 100 µg/mL
- EC50 [2]: 12 µg/mL (≈ 30.4 µM)
- TC50 (Vero cells): >42 µg/mL

Structure (SMILES): Ic1ccc(Cn2ccc3nc(-c4ccccc4)nc-3c2)cc1 [GPJN-68, 5-[(4-Iodophenyl)methyl]-2-phenyl-5H-imidazo[4,5-c]pyridine]
- EC50 (BVDV-1 (strain PE515); [5]): 0.026 µg/mL (≈ 0.0632 µM)
- CC50 at 3 days [1]: 17 µg/mL (≈ 41.3 µM)

Structure (SMILES): c1ccc(OCCn2ccc3nc(-c4ccccc4)nc-3c2)cc1 [GPJN-73, 5-(2-Phenoxyethyl)-2-phenyl-5H-imidazo[4,5-c]pyridine]
- EC50 (BVDV-1 (strain PE515); [5]): 0.017 µg/mL (≈ 0.0539 µM)
- CC50 at 3 days [1]: > 100 µg/mL

Structure (SMILES): C(=Cc1ccccc1)Cn1ccc2nc(-c3ccccc3)nc-2c1 [GPJN-75, 2-Phenyl-5-(3-phenyl-2-propenyl)-5H-imidazo[4,5-c]pyridine]
- EC50 (BVDV-1 (strain PE515); [5]): 0.018 µg/mL (≈ 0.0578 µM)
- CC50 at 3 days [1]: 31.7 µg/mL (≈ 102 µM)

Structure (SMILES): Brc1cccc(-c2nc3ccn(Cc4ccc(I)cc4)cc-3n2)c1 [GPJN-79, 2-(3-Bromophenyl)-5-[(4-iodophenyl)methyl]-5H-imidazo[4,5-c]pyridine]
- EC50 (BVDV-1 (strain PE515); [5]): 0.083 µg/mL (≈ 0.169 µM)
- CC50 at 3 days [1]: > 100 µg/mL

Structure (SMILES): Clc1ccc(Cn2ccc3nc(-c4cccc(Br)c4)nc-3c2)cc1 [GPJN-80, 2-(3-Bromophenyl)-5-[(4-chlorophenyl)methyl]-5H-imidazo[4,5-c]pyridine]
- EC50 (BVDV-1 (strain PE515); [5]): 0.18 µg/mL (≈ 0.451 µM)
- CC50 at 3 days [1]: > 100 µg/mL

Structure (SMILES): Brc1ccc(Cn2ccc3nc(CSc4ccccc4)nc-3c2)cc1 [GPJN-83, 5-[(4-Bromophenyl)methyl]-2-[(phenylthio)methyl]-5H-imidazo[4,5-c]pyridine]
- EC50 [3]: < 0.62 µg/mL
- CC50 at 72 hours [4]: 8 µg/mL (≈ 19.5 µM)

Structure (SMILES): FC(F)(F)c1cccc(-c2nc3ccn(Cc4ccc(Br)cc4)cc-3n2)c1 [GPJN-87, 5-[(4-Bromophenyl)methyl]-2-[3-(trifluoromethyl)phenyl]-5H-imidazo[4,5-c]pyridine]
- EC50 [3]: < 0.62 µg/mL
- CC50 at 72 hours [4]: 20 µg/mL (≈ 46.3 µM)

Structure (SMILES): Clc1c2nc(-c3ccccc3)nc-2ccn1Cc1ccc(Br)cc1 [GPJN-96, 5-[(4-Bromophenyl)methyl]-4-chloro-2-phenyl-5H-imidazo[4,5-c]pyridine]
- EC50 [3]: 1 µg/mL (≈ 2.51 µM)
- CC50 at 72 hours [4]: 4 µg/mL (≈ 10 µM)

Structure (SMILES): Brc1cccc(-c2nc3ccn(CCOc4ccccc4)cc-3n2)c1 [GPJN-100, 2-(3-Bromophenyl)-5-(2-phenoxyethyl)-5H-imidazo[4,5-c]pyridine]
- EC50 (BVDV-1 (strain PE515); [6]): 0.088 µg/mL (≈ 0.223 µM)
- MTC (MDBK cells): 20 µg/mL

Structure (SMILES): Clc1cn(Cc2ccc(Br)cc2)cc2nc(-c3ccccc3)nc1-2 [GPJN-103, 5-[(4-Bromophenyl)methyl]-7-chloro-2-phenyl-5H-imidazo[4,5-c]pyridine]
- EC50 (BVDV-1 (strain PE515); [6]): 0.061 µg/mL (≈ 0.153 µM)
- MTC (MDBK cells): 20 µg/mL

Structure (SMILES): Cc1cn(Cc2ccc(Br)cc2)cc2nc(-c3ccccc3)nc1-2 [GPJN-104, 5-[(4-Bromophenyl)methyl]-7-methyl-2-phenyl-5H-imidazo[4,5-c]pyridine]
- EC50 (BVDV-1 (strain PE515); [6]): 0.27 µg/mL (≈ 0.714 µM)
- MTC (MDBK cells): 20 µg/mL

Structure (SMILES): c1ccc(-c2ccc(Cn3ccc4nc(-c5cccc6ccccc56)nc-4c3)cc2)cc1 [GPJN-115, 5-([1,1′-Biphenyl]-4-ylmethyl)-2-(1-naphthalenyl)-5H-imidazo[4,5-c]pyridine]
- EC50 (BVDV-1 (strain PE515); [6]): 0.24 µg/mL (≈ 0.583 µM)
- MTC (MDBK cells): 4 µg/mL
